Assay results as given in US5106870A, “Methods for the use of thromboxane A2 antagonists” (National Research Development Corporation, priority 1990, dated 1992).

How the values were obtained:
[1] = tested on: U-46619-induced platelet aggregation; assay: Inhibition of U-46619-induced platelet aggregation in rat platelet rich plasma (in vitro); type: cell-based; details: rat PRP
Method: a. Inhibition of U-46619-induced platelet aggregation (rat)
Platelet rich plasma (PRP) was prepared from heparanized whole blood (5 units/ml) drawn from the abdominal aorta of ether anesthetized rats. PRP was prepared by centrifugation (Sorvall RC2B, DuPont, Wilmington, Del.) of the whole blood at 150×g for 10 min. Platelet poor plasma (PPP) was prepared by centrifugation at 1200×g for 20 min. Aliquots of PRP and PPP were used to standardize the aggregometer (Payton, Buffalo, N.Y., model 300B) with the recorder (Riken Denshi 2 channel recorder, Payton, model SP-H5P) for measurement of minimum and maximum light transmittance, respectively.
Platelet aggregation was measured as an increase in light transmittance. PRP (390 μl aliquot +5 μl compound vehicle) was preincubated for 1 min. at 37° C., with stirring at 900 rpm in the aggregometer. The vehicle control response was obtained by adding U-46619 (Cayman Chemical, Ann Arbor, Mich., 1-2 units/cuvette/10 μl) to the aliquot of PRP. Aggregation was monitored until maximum aggregation was achieved (approximately 3 min. following the addition of U-46619). Amount of aggregation was measured by grids on the strip chart.
Compounds were dissolved in either ethanol (ETOH) or Na2 CO3 (0.1M) and preincubated at the desired concentration in PRP for 1 min. at 37° C. with stirring. At the end of the preincubation, U-46619 was added and aggregation measured. Inhibition of aggregation by compound was calculated as percent inhibition of the control aggregation response to U-46619. Dose response curves were generated and IC50 's calculated by linear regression.

[2] = tested on: U-46619 induced platelet aggregation; assay: Ex vivo inhibition of U-46619 induced platelet aggregation, intravenous; type: in vivo; details: rat
Method: (§1) II. Ex vivo--(rat) Inhibition of U-46619 induced platelet aggregation
Rats were anesthetized with ether and the jugular vein exposed. Compound dissolved in 0.1M Na Carbonate was injected as a bolus into the jugular vein. Blood (5 ml, heparanized) was sampled 30 sec. later from the abdominal aorta. PRP was prepared by quick centrifugation (Eppendorf, model 5415 at 12,000 rpm for 5 sec. PPP was prepared by centrifugation for 2 min. PRP was diluted 1:1 with PPP from similarly treated animals. Aggregation was monitored for 5 min. and inhibition was determined as previously described.

[3] = tested on: U-46619 induced platelet aggregation; assay: Ex vivo inhibition of U-46619 induced platelet aggregation, intragastric; type: in vivo; details: rat
Method: as §1
Compounds dissolved in Na Carbonate were administered to conscious rats with an I.G. tube. Fifteen minutes post administration (time previously determined to show maximum effect), rats were anesthetized with ether and blood was sampled from the abdominal aorta, PRP was prepared as described in II a.

human washed platelets = assay: Analysis of partial agonism (shape change/aggregation) in human washed platelets; type: cell-based; details: 5 and 10 min incubation
Method: b. Analysis of partial agonism with SC-46985 (human washed platelets)
Sixty ml of blood were drawn into 1/10 volume of CCD (100 mM Na Citrate and 136 mM glucose, pH 6.5 with HCl) and PRP prepared as described above. PRP was placed on ice for 15 min. One half of the volume of CCD was added and recentrifuged. The platelet pellet was gently resuspended in 1/2 the original volume of PRP in a 0° C. modified Tangen-Hepes-BSA buffer (145 mM NaCl, 5 mM KCl, 0.05 mM CaCl2, 0.1 mM MgCl2, 11 mM glucose, 15 mM Hepes, 1 mg/ml bovine serum albumin, pH adjusted to 7.4 with NaOH). The resuspended platelets were incubated undisturbed at 37° C. for 30 min. After incubation a platelet count was determined and adjusted to 3×10^8 cells/ml with the Tangen-Hepes-BSA buffer.
425 μl of the washed human platelet suspension was incubated in the aggregometer in the presence of 16 mM CaCl2 (50 μl) and SC-46985 for 5 and 10 min. […] (In a study similar to (a) above, aliquots of human washed platelets were incubated with various concentrations of SC-46985 and U-46619 to determine dose-related inhibition of aggregation).

Question: How did the “more potent in aqueous solution than when dissolved in ethanol” value ([1]; aqueous (Na Carbonate) vs ethanol) turn out when `CC(=NNC(=S)Nc1ccccc1)[C@@H]1[C@H]2CC[C@H](C2)[C@H]1C/C=C\CCCC(=O)O` (relative stereo) [SC-44161, (±)7-[3α[[(Phenylamino)thioxomethyl]hydrazono]ethyl]1α,4α-bicyclo[2.2.1]hept-2β-yl]-5Z-heptenoic acid] was run?
Answer: 5-10 fold

Question: What does the source list for `CC(=NNC(=S)Nc1ccccc1)[C@@H]1[C@H]2CC[C@H](C2)[C@H]1C/C=C\CCCC(=O)O` [SC-46984, 7-[3α-[1-[[(Phenylamino)thioxomethyl]hydrazono]ethyl]-1R,1α,4α-bicyclo-[2.2.1]hept-2β-yl]-5Z-heptenoic acid]?
Answer: more potent than SC-44161 ([1]; in vitro): approximately 100 times; more potent than SC-44161 (ED50) [2]: approximately 3.5 times; more potent than SC-44161 (I.G. ED50) [3]: approximately 2.8 times

Question: For `CC(=NNC(=S)Nc1ccccc1)[C@H]1[C@@H]2CC[C@@H](C2)[C@@H]1C/C=C\CCCC(=O)O` [SC-46985], which “partial agonist activity (shape change or aggregation)” value (human washed platelets) is on record?
Answer: no evidence of shape change or aggregation

Question: What about the “less potent than SC-44161 (ED50)” value [2] of the same compound?
Answer: approximately 1.5 times

Question: What does the source list for `CC(=NNC(=S)Nc1ccccc1)[C@@H]1[C@H]2CC[C@H](C2)[C@H]1C/C=C/CCCC(=O)O` [SC-47721, 7-[3α-[1-[[(Phenylamino)thioxomethyl]hydrazono]ethyl]-1R,1α,4α-bicyclo-[2.2.1]hept-2β-yl]-5E-heptenoic acid]?
Answer: more potent than SC-44161 ([1]; in vitro): 10-50 times; potency compared with SC-46984 ([1]; in vitro): less potent than SC-46984; inhibition of U-46619 induced aggregation ([3]; 1 mg/kg, 15 min post administration): 37.5%
